Reference: publication PMC11865577 (2024)
Values belong to the compound of their own block, whether it stands above or below them.

Experiments:
[1] = test system: hsa-mir-6850 (RNA, G4) AGCCGGGGCGGGAGGGGAAGGGACGCCCGGCU; test: fluorescence titration; conditions: 20 mM NaCl, 80 mM KCl, apparent
[2] = test system: hsa-mir-191 (RNA, miRNA) AGCCAGCUGUUGUCUCCAGAGCAUUCCAGCUGGCU; test: fluorescence titration; conditions: 20 mM NaCl, 80 mM KCl, phosphate pH 7.0, apparent
[3] = test system: hsa-mir-21 (RNA, miRNA) AGCGUUGACUGUUGAAUCUCAUGGCAACGCU; test: fluorescence titration; conditions: 20 mM NaCl, 80 mM KCl, phosphate pH 7.0, apparent
[4] = test system: hsa-mir-221 (RNA, miRNA) AGCAGAUUUCUGUGUUCGUUAGGCAACAGCUGCU; test: fluorescence titration; conditions: 20 mM NaCl, 80 mM KCl, phosphate pH 7.0, apparent
[5] = test system: hsa-mir-374a (RNA, miRNA) AGCUAAGUGUUAUAGCACUUAGCU; test: fluorescence titration; conditions: 20 mM NaCl, 80 mM KCl, phosphate pH 7.0, apparent
[6] = test system: hsa-mir-4437 (RNA, miRNA) AGCUCCACAAGGAGGGGAUGACCCUUGUGGGGCU; test: fluorescence titration; conditions: 20 mM NaCl, 80 mM KCl; 20 mM phosphate pH 7.0, 1% DMSO, 20 °C; apparent
[7] = test system: hsa-mir-4520-1 loop (RNA, miRNA) AGCCCAAAUCAGAAAAGGAUUUGGGCU; test: fluorescence titration; conditions: 20 mM NaCl, 80 mM KCl; 20 mM phosphate pH 7.0, 1% DMSO, 20 °C; apparent
[8] = test system: hsa-mir-4520-1-mutG2A (RNA, miRNA) AGCCCAAAUCAAAAAAGGAUUUGGGCU; test: fluorescence titration; conditions: 20 mM NaCl, 80 mM KCl; 20 mM phosphate pH 7.0, 1% DMSO, 20 °C; apparent
[9] = test system: hsa-mir-4520-1-mutG7A (RNA, miRNA) AGCCCAAAUCAGAAAAAGAUUUGGGCU; test: fluorescence titration; conditions: 20 mM NaCl, 80 mM KCl; 20 mM phosphate pH 7.0, 1% DMSO, 20 °C; apparent
[10] = test system: hsa-mir-4520-1 mutG2,7A (RNA, miRNA) AGCCCAAAUCAAAAAAAGAUUUGGGCU; test: fluorescence titration; conditions: 20 mM NaCl, 80 mM KCl; 20 mM phosphate pH 7.0, 1% DMSO, 20 °C; apparent
[11] = test system: hsa-mir-6847 (RNA, miRNA) AGCGAGCUGGAAGGAGUGGGCCUGGCUCGCU; test: fluorescence titration; conditions: 20 mM NaCl, 80 mM KCl; 20 mM phosphate pH 7.0, 1% DMSO, 20 °C; apparent
[12] = test system: G4_(GGGU)6 (RNA, G4) AGCGGGUGGGUGGGUGGGUGGGUGGGUGCU; test: fluorescence titration; conditions: 20 mM NaCl, 80 mM KCl; 20 mM phosphate pH 7.0, 1% DMSO, 20 °C; apparent
[13] = test system: hsa-mir-4773-1 (RNA, miRNA) AGCUCUGCUUUAUUUCAUCAAAGCAGAGCU; test: fluorescence titration; conditions: 20 mM NaCl, 80 mM KCl; 20 mM phosphate pH 7.0, 1% DMSO, 20 °C; apparent
[14] = test system: common stem sequence with four Us in the terminal loop (RNA, hairpin) GUGUACGAAGUUUCAGCUUUUGCUGAAGCUUCGUGCAC; test: fluorescence titration; conditions: 20 mM NaCl, 80 mM KCl; 20 mM phosphate pH 7.0, 1% DMSO, 20 °C; apparent
[15] = test system: mutG7A (biotinylated) (RNA, miRNA) AGCCCAAAUCAGAAAAAGAUUUGGGCU; test: SPR, multi-cycle, 1:1 fit; conditions: 20 mM NaCl, 80 mM KCl; 20 mM phosphate pH 7.0, 1% DMSO, 25 °C; up to 50 μM; apparent
[16] = test system: hsa-mir-4520-1 loop (biotinylated) (RNA, miRNA) AGCCCAAAUCAGAAAAGGAUUUGGGCU; test: SPR, single-cycle kinetics; conditions: 20 mM NaCl, 80 mM KCl; 20 mM phosphate pH 7.0, 25 °C; apparent
[17] = test system: mutG2A (biotinylated) (RNA, miRNA) AGCCCAAAUCAAAAAAGGAUUUGGGCU; test: SPR, single-cycle kinetics; conditions: 20 mM NaCl, 80 mM KCl; 20 mM phosphate pH 7.0, 25 °C; apparent
[18] = 20 mM phosphate pH 7.0, 1% DMSO, 20 °C, 0.1 μM compound
[19] = 1 μM compound, range 2.6-16 μM for all RNAs

Structure (SMILES): CN1C(=CC=Cc2cc[n+](CCC[N+](C)(C)C)c3ccccc23)Sc2ccccc21
KDapp [1, 18]: 0.19 µM

Structure (SMILES): C[n+]1c(C=C2C=CN(CCC[N+](C)(C)C)c3ccccc32)sc2ccccc21
KDapp [1, 18]: 0.20 µM

Structure (SMILES): O=c1c(O)c(-c2cc(O)c(O)c(O)c2)oc2cc(O)cc(O)c12
KDapp ([1]; phosphate pH 7.0): 3.3 ± 0.1 µM | KDapp ([2]; range 16-25 μM for target RNAs): 25 ± 3 µM | KDapp ([3]; range 16-25 μM for target RNAs): 16 ± 0.5 µM | KDapp ([4]; range 16-25 μM for target RNAs): 20 ± 2 µM | KDapp ([5]; 0-40 μM RNA, low-rank RNA): > 40 µM

Structure (SMILES): O=c1cc(-c2ccccc2)oc2cc(O)c(O)c(O)c12
KDapp ([2]; 0-40 μM RNA): > 40 µM | KDapp ([3]; 0-40 μM RNA): > 40 µM | KDapp ([4]; 0-40 μM RNA): > 40 µM

Structure (SMILES): [N-]=[N+]=NCCOCCOCCOCCNC(=O)Cn1cc2c(nc1=O)Nc1c(OCCN)cccc1O2
KDapp [7]: 0.024 µM | KDapp [8]: 0.011 µM | KDapp [9]: 15 µM | KDapp [10]: 3.7 µM | KDapp [11]: 0.022 µM | KDapp ([1]; 20 mM phosphate pH 7.0, 1% DMSO, 20 °C): 0.19 µM | KDapp [12]: 0.15 µM | KDapp [13]: > 20 µM | KDapp [14]: 9 µM | KDapp [15]: > 50 µM | KDapp [16]: 0.10 ± 0.02 µM | KDapp [17]: 0.044 ± 0.008 µM

Results, then the compound that gave them:

KDapp ([1]; phosphate pH 7.0, 1 μM compound, range 2.6-16 μM for all RNAs): 4.0 ± 0.5 µM | KDapp [2, 19]: 3.8 ± 0.5 µM | KDapp [3, 19]: 2.6 ± 0.6 µM | KDapp [4, 19]: 3.8 ± 0.3 µM | KDapp [5, 19]: 12 ± 1 µM
Structure (SMILES): COc1ccc2c(c[n+](C)c3c4cc5c(cc4ccc23)OCO5)c1OC

KDapp [6]: 4.4 µM
Structure (SMILES): C[n+]1ccc(C=C2Sc3ccccc3N2CCCCC(=O)NCCOCCOCCOCCN=[N+]=[N-])c2ccccc21

KDapp ([1]; phosphate pH 7.0, 1 μM compound): 4.5 µM | KDapp ([2]; 1 μM compound): 14 µM | KDapp ([3]; 1 μM compound): 20 µM
Structure (SMILES): N#CC(c1ccnc(OCc2ccc(CN3CCOCC3)cc2)n1)c1nc2ccccc2s1 (stereo not shown)
